This data set relates to moderate to severe papular-pustular acne. The class given is in vivo, human. As to conditions: for skin irritation: human, in vivo. The procedure:
This example compares therapeutically applied retinyl palmitate, retinoic acid, calcitriol, and combinations thereof in a cream at different concentrations with the effectiveness of the cream without any of the above compounds present in treating acne. The base cream used to prepare the experimental formulations is the commercially available […] cream. The different compounds at different concentrations were added to the cream and mixed very well. Sixty six volunteers were recruited and were randomly assigned to each of the groups. the subjects were selected on the basis of their having moderate to severe papular-pustular acne. Each group consisted of 3 males and 3 females. No other acne treatment was permitted during the period. Preparations were applied to the face in the morning and evening after washing the face with ordinary soap. Observations were made at time 0, 1, 4, and 8 weeks to assure that treatment was carried out according to direction. Judgments of “worse”, “no change”, “mild”, and “good” were made after 8 weeks of treatment.

Structures are written as SMILES.

As for `C=C1/C(=C\C=C2/CCC[C@]3(C)[C@@H]([C@H](C)CCCC(C)(C)O)CC[C@@H]23)C[C@@H](O)C[C@@H]1O` [calcitriol, reference compound], the skin irritation entry is listed as “caused skin irritation”.
In the case of `CC1=C(/C=C/C(C)=C/C=C/C(C)=C/CO)C(C)(C)CCC1=O` [4-oxo-retinol], the skin irritation entry is listed as “did not”.
As to `CC1=C(/C=C/C(C)=C/C=C/C(C)=C/C(=O)O)C(C)(C)CCC1` [retinoic acid, reference compound], the skin irritation result was “caused skin irritation”.
For the molecule `CCCCCCCCCCCCCCCC(=O)OC/C=C(C)/C=C/C=C(C)/C=C/C1=C(C)CCCC1(C)C` [retinyl palmitate], the skin irritation entry is given as “did not”. Besides, the “improvement in treating acne versus lower concentrations” value (concentrations at about 1.5% and more) is reported as “remarkable improvement over lower concentrations”.

(Values after patent US6552009B2, “Compositions and methods of treating abnormal cell proliferation” (Gentrix LLC, priority 1998, dated 2003).)
